# According to article PMC9684509, “Construction of a synthetic methodology-based library and its application in identifying a GIT/PIX protein–protein interaction inhibitor” (Nature Communications, 2022):
# Ends that are not written are not given here.
# T1: GIT1 1–370 (Mus musculus, UniProt Q68FF6)
# T1 construct: residues 1-370, E. coli BL21(DE3), N-terminal Trx-His6 tag removed by HRV-3C protease; for BLI biotin-labelled (BLI construct not restated)
# T1 sequence (Q68FF6 1-370): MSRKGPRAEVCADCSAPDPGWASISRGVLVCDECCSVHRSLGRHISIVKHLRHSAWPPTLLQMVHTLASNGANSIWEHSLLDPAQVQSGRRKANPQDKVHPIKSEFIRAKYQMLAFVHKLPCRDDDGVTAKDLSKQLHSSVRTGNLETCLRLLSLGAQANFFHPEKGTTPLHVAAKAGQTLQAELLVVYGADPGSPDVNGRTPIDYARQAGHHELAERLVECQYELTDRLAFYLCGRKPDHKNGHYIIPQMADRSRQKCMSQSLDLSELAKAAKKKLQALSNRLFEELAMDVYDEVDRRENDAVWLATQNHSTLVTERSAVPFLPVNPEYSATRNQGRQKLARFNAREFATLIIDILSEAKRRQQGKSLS
# T2: GIT1 1–370 (mouse) (mouse, UniProt Q68FF6 1-370)
# T2 construct: GIT1, mouse, aa 1-370 (GenBank NM_001004144.1), cloned into pET32M3C; also called GIT1 protein; source: E. coli BL21 (DE3), purified (Ni-NTA, SEC, tag cleaved by HRV-3C, SEC); not shown: Trx, N-terminal, cleaved; His6, N-terminal, cleaved
# T2 sequence (looked up): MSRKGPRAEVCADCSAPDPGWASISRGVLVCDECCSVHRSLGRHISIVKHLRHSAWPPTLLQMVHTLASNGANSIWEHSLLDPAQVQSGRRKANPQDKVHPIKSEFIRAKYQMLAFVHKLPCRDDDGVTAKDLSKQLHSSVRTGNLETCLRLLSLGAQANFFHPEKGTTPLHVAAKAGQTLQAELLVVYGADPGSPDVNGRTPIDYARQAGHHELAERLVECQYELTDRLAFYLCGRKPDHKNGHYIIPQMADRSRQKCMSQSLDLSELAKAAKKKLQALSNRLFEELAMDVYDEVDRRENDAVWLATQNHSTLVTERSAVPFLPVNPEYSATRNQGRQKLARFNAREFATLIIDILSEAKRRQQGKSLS
# Molecular target: T1, GIT1 1–370
# Assay: fluorescence polarization competition with FITC-beta-Pix peptide
# Format: binding
# Settings: not given
row,Ki [µM],Molecule
1,1.8,CCOC(=O)[C@@H]1[C@@H]2C[C@@H](/C(=C\c3ccoc3)C2=O)[C@@]12C(=O)N(C)c1ccccc12 [14-5-18]
2,1.5,CCOC(=O)C1=C[C@H](c2cccc(C)c2)[C@H]2CC[C@@H](CC(=O)C3CCCCC3)O[C@H]2N1S(=O)(=O)c1ccc(C)cc1 [15-4-26]

# Molecular target: T1, GIT1 1–370
# Assay: biochemical
# Parameters: Fluorescence polarization competition of FITC-beta-Pix peptide binding to GIT1 1-370
# Settings: read-out: IC50 in FP assay
# Method: GIT1 protein purification: Purification of GIT1 1–370 was performed following a published protocol. Briefly, the coding sequence of mouse GIT1 aa. 1–370 (GenBank: NM_001004144.1) was cloned into a pET32M3C (with an N-terminal Trx-His6 tag) vector. The recombinant protein was expressed in Escherichia coli BL21 (DE3) cells at 16 °C for 18 h induced by the isopropyl-β-D-thiogalactoside (IPTG) at a final concentration of 0.2 mM. The N-terminal Trx-His6-tagged GIT1 1–370 was purified by Ni^2+-NTA agarose affinity chromatography, followed by a Superdex-200 26/60 size-exclusion chromatography (GE Healthcare, Cytiva). To remove the Trx-His6 tag, GIT1 protein was cleaved by HRV-3C protease at 4 °C overnight and then purified by another step of SEC purification. The β-Pix-positive peptide (sequence: […]) and fluorescent peptide (sequence: FITC-(Acp)-[…]) were synthesized by China peptide (Shanghai, China). FP assay was used to monitor interactions between GIT1 and the compounds. For each assay, fresh protein stocks of GIT1 were thawed. Assay buffer contained 100 mM NaCl, 50 mM Tris pH 7.5. All the experiments were prepared in duplicates. The fluorescence intensities, parallel and perpendicular to the plane of excitation, were determined in Corning black 96-well NBS assay plates at room temperature. Fluorescence polarization was determined using a Multi-Mode Detection Platform (SpectraMax Paradigm, Molecular Devices, USA) with 485 nm excitation and 535 nm emission filters, the values were expressed in millipolarization units (mP). The binding affinity of the fluorescent peptide toward GIT1 was first determined via titration. For this purpose, 100 nM fluorescent peptide was contacted with serial dilutions of GIT1 (concentration ranging from 0.01 to 10 µM) in a final volume of 80 µL. KD value was stimulated from FP values and protein concentrations using GraphPad Prism 8.0 software. Competition binding assay was performed using 100 nM fluorescent peptide and optimal protein concentration (2.0 µM) for the measurement was calculated based on determined KD. Tested compounds were prepared as serial dilutions (0.1–500 µM) in DMSO. […] Additionally, the commercial compound library ChemDiv was screened as a control. The 20 compounds with the best docking scores were selected, purchased, and further subjected to FP binding assay to test their inhibitory abilities. […] The screening was performed at both virtual and entity levels. In the virtual screening, the docking model of the GIT1/β-Pix complex was constructed, and the binding pocket was generated based on the complex structure of GIT2/β-Pix that we solved recently (PDB ID: 6JMT)[42] (Fig. 2c). The virtual library (SMBL-V) was subjected to the Sybyl-X 2.0 program to perform high-throughput docking screening with GIT1 at the specific binding pockets. […] The Autodock and Sybyl-X 2.0 programs were used in combination for the second round of screening. Twenty top-ranked molecules were selected, and 9 compounds were synthesized (one structure for each scaffold) to perform further evaluation (N = 9) (see Source Data File for detailed structures and scores). For the entity library (SMBL-E) screening, a fluorescence polarization (FP)-binding assay[43],[44] was established to evaluate the inhibitory abilities of the compounds on the GIT1/β-Pix interaction (Fig. 2d). Several representative compounds (N = 100) with different scaffolds were chosen for screening. Together with the 9 compounds selected from virtual screening, a total of 109 compounds were subjected to the FP binding assay to perform the final evaluation. Compound 15-4-26 from the virtual library and compound 14-5-18 from the entity library with the best binding affinities (Ki values) were selected as candidates (Fig. 2e and Supplementary Fig. 3).
row,IC50 [µM],Molecule
1,> 1000,Cc1cc(-c2ccc3ccccc3n2)nc2ccc3ccccc3c12 [0443-0206]
2,> 1000,CC(NS(=O)(=O)c1ccc2c(c1)C(=O)c1cc(S(=O)(=O)NC(C)C(=O)O)ccc1-2)C(=O)O (stereo not drawn) [2578-0155]
3,> 100,C1C2CC3CC1CC(C2)C3Nc1nc2nonc2nc1NC1C2CC3CC(C2)CC1C3 (stereo not drawn) [3277-0083]
4,> 100,Cn1c(=O)c2c(nc(Oc3cccc(C4Nc5ccc6ccccc6c5C5=C4C(=O)CC(C)(C)C5)c3)n2C)n(C)c1=O (stereo not drawn) [3277-0261]
5,> 1000,CC1=CC(C)(C)Nc2ccc(OC(=O)C(Cc3ccccc3)N3C(=O)C4CCCCC4C3=O)cc21 (stereo not drawn) [4934-0001]
6,> 1000,Cn1c(=O)n(C)c2cc(CNC34CC5CC(C)(CC(C)(C5)C3)C4)ccc21 [D272-0692]
7,> 100,Cc1ccc2cc3c(nc2c1)N(S(=O)(=O)c1ccc2c(c1)OCCO2)CC3 [D470-0645]
8,> 1000,CN1C(=O)C(c2c(-c3ccc4ccccc4c3)[nH]c3[nH]c(=O)[nH]c(=O)c23)c2ccccc21 (stereo not drawn) [D517-1064]
9,> 1000,CSc1cccc(NC(=O)Nc2ccc(Nc3cc(N(C)C)nc(C)n3)cc2)c1 [D638-0006F]
10,> 100,O=S(=O)(c1ccc2nc(Nc3ccc(Br)cc3F)ccc2c1)N1CCCCC1 [F052-0078]
11,> 100,O=C(Nc1cccc(OCc2cc(=O)n3cc(Cl)ccc3n2)c1)Nc1ccc2c(c1)OCCO2 [G756-2320]
12,> 1000,O=C1Nc2ccccc2Oc2cc(Oc3ccc4c(c3)OCO4)c(S(=O)(=O)N3CCCC3)cc21 [J030-0445]
13,> 1000,CCS(=O)(=O)c1ccc2c(c1)N(Cc1nc(-c3ccc4c(c3)OCO4)no1)C(=O)CO2 [L111-0329]
14,> 100,Cc1cc(C)cc(S(=O)(=O)N2CCC3(CC2)NCCN=C3NCc2ccc(C(F)(F)F)cc2)c1 [L676-2486]
15,> 1000,CC(CC(=O)Nc1ccc2c(c1)OCCO2)S(=O)(=O)c1ccc2c(c1)NC(=O)CCS2 (stereo not drawn) [L705-0544]

# Molecular target: T1, GIT1 1–370
# Assay: biochemical
# Parameters: Biolayer interferometry, kinetic binding of 14-5-18 to GIT1
# Settings: read-out: ka
# From the text: We next investigated whether compounds 14-5-18 and 15-4-26 specifically perturbed the GIT1/β-Pix interaction in living cells. Firstly, we performed Cellular Thermal Shift Assay (CETSA) to preliminarily explore the target engagement of the compounds with GIT1 (Supplementary Fig. 4). CETSA relies on the fact that proteins are generally vulnerable to thermal conditions, while physical binding with other molecules could improve their stability. […] Therefore, further evaluations were only performed with 14-5-18, and 15-4-26 was suspended for its poor potential for drug development. […] Similarly, under thermal conditions from 30 to 90 °C, 14-5-18 (50 µM) also considerably stabilized GIT1, especially at high temperatures (Supplementary Fig. 4c). To further confirm whether 14-5-18 directly bound to GIT1, we used biolayer interferometry (BLI) assay to measure their interaction. […] Concentrations ranging from 25 to 400 μM were shown with the real-time response for each step of the kinetic assay. b Co-IP assay to indicate the interaction of GIT1 and β-Pix and the inhibitory effects of 14-5-18. […] GFP-GIT1 (green) and Myc-β-Pix were expressed followed by treatment with a fluorescent secondary antibody (red) in the MGC803 cell line to construct the fluorescence system. […] Plot fluorescence intensities of the area marked by the white lines in the left panels are shown in the right graphs. […]
row,kon [M⁻¹ s⁻¹],Molecule
1,200,"CCOC(=O)[C@@H]1[C@@H]2C[C@@H](/C(=C\c3ccoc3)C2=O)[C@@]12C(=O)N(C)c1ccccc12 [14-5-18, ethyl (1S,2R,3R,4S,E)-6-(furan-3-ylmethylene)-1'-methyl-2',5-dioxospiro [bicyclo[2.2.1]heptane-2,3'-indoline]-3-carboxylate]"

# Same assay, conditions: read-out: kdis
row,koff [s⁻¹],Molecule
1,0.00154,"CCOC(=O)[C@@H]1[C@@H]2C[C@@H](/C(=C\c3ccoc3)C2=O)[C@@]12C(=O)N(C)c1ccccc12 [14-5-18, ethyl (1S,2R,3R,4S,E)-6-(furan-3-ylmethylene)-1'-methyl-2',5-dioxospiro [bicyclo[2.2.1]heptane-2,3'-indoline]-3-carboxylate]"

# Molecular target: T1, GIT1 1–370
# Assay: biochemical
# Parameters: fluorescence polarization competition, displacement of FITC-beta-Pix peptide from GIT1
# Settings: read-out: IC50 in FP assay
# Remark: another data set of the same source
# Method: GIT1 protein purification: Purification of GIT1 1–370 was performed following a published protocol. Briefly, the coding sequence of mouse GIT1 aa. 1–370 (GenBank: NM_001004144.1) was cloned into a pET32M3C (with an N-terminal Trx-His6 tag) vector. The recombinant protein was expressed in Escherichia coli BL21 (DE3) cells at 16 °C for 18 h induced by the isopropyl-β-D-thiogalactoside (IPTG) at a final concentration of 0.2 mM. The N-terminal Trx-His6-tagged GIT1 1–370 was purified by Ni^2+-NTA agarose affinity chromatography, followed by a Superdex-200 26/60 size-exclusion chromatography (GE Healthcare, Cytiva). To remove the Trx-His6 tag, GIT1 protein was cleaved by HRV-3C protease at 4 °C overnight and then purified by another step of SEC purification. The β-Pix-positive peptide (sequence: […]) and fluorescent peptide (sequence: FITC-(Acp)-[…]) were synthesized by China peptide (Shanghai, China). […] The fluorescence intensities, parallel and perpendicular to the plane of excitation, were determined in Corning black 96-well NBS assay plates at room temperature. Fluorescence polarization was determined using a Multi-Mode Detection Platform (SpectraMax Paradigm, Molecular Devices, USA) with 485 nm excitation and 535 nm emission filters, the values were expressed in millipolarization units (mP). The binding affinity of the fluorescent peptide toward GIT1 was first determined via titration. […]
row,IC50 [µM],Molecule
1,> 1000,O=C(NCc1ccco1)C1CN(C(=O)c2cccs2)CC12CCCCC2 (stereo not drawn) [S030-1757]

# Molecular target: T2, GIT1 1–370 (mouse)
# Assay: fluorescence polarisation; direct titration: 100 nM fluorescent peptide with serial dilutions of GIT1 (0.01 to 10 µM), 80 µL; 100 mM NaCl, 50 mM Tris pH 7.5, room temperature
# Settings: both partners purified
row,binding result,Molecule
1,binds,"ALEEDAQILKVIEAYCTSAKT (not fully specified (N-terminus), source: synthetic peptide (China peptide, Shanghai)) [FITC-β-Pix fluorescent peptide]"
